Structures can show the parent of a compound that is named as a salt.
Assays:
[1] = tested on: HPAC cells; test: In vitro cell proliferation assay in HPAC cell line; format: cell-based; settings: Homo sapiens; for inhibition at 3 µM: TC1: Test Concentration of 3 uM; for inhibition at 10 µM: TC2: Test Concentration of 10 uM
Protocol: (§1) Test 1: In Vitro Cell Proliferation Assay in HPAC and AGS Cell Lines
(§2) Growth inhibition assays was carried out using 10% FBS supplemented media. Cells are to be seeded at a concentration of 2000-3,000 cells/well in a 96-well plate. Test compounds at a concentration range from 0.1 to 30 uM will be added after 24 hours. Growth will be assessed using the MTT or CCK-8 kit for measuring reduction at 0 h (prior to the addition of the test compound) and 72 to 96 hours after the addition of test compound. Absorbance read on a BIO-RAD iMark Microplate or any equivalent micloplate reader at a wavelength of 450 nm to 600 nm. Data will be analyzed and percent inhibition due to the test compound compared to the control is calculated accordingly.

[2] = tested on: AGS cells; test: In vitro cell proliferation assay in AGS cell line; format: cell-based; settings: Homo sapiens; for inhibition at 3 µM: TC1: Test Concentration of 3 uM; for inhibition at 10 µM: TC2: Test Concentration of 10 uM
Protocol: as §1, §2

[3] = tested on: CT-26; test: In vitro cell proliferation assay in KRASG12 cell lines (CT-26); format: cell-based; settings: Mus musculus, CT26; Cell Line CT-26; Cell Titer-Glo, 3 day (2D) or 7 day (3D)
Protocol: Test 2: In Vitro Cell Proliferation Assay in KRASG12 Cell lines Growth inhibition assays was carried out using 10% FBS supplemented media. Cells were seeded at a desired concentration of 1000-2,000 cells/well in a well plate with desired number of wells. Test compounds at a desired concentration range were added after 24 hours. Growth was assessed using the Cell Titer-Glo (CTG, Cell Signaling) for measuring reduction at 0 h (prior to the addition of the test compound) and 3 day (2D) or 7 day (3D) after the addition of test compound. Absorbance read on a BIO-RAD iMark Microplate or any equivalent microplate reader at a predetermined a wavelength for e.g. 450 nm. Data was be analysed and percent inhibition and/or IC50 for each test compound is calculated accordingly.

[4] = biological target: T1, human KRAS G12D protein (Homo sapiens, UniProt P01116, G12D); test: HTRF-based nucleotide exchange assay detecting GTP binding to K-Ras; format: biochemical; settings: human KRAS G12D (amino acid 2-169), SOS1 mediated exchange
T1 construct: A human KRAS G12D protein (corresponding to amino acid 2-169)
Protocol: Test 3: Nucleotide Exchange Assay HTRF-based nucleotide exchange assay detecting GTP binding to K-Ras A human KRAS G12D protein (corresponding to amino acid 2-169) was mixed with a a-GST Tb antibody (1.5× solution) and 10 uL of the solution was added to the reaction wells). Compounds (each 10 concentrations or any other concentration of choice at 3-fold or fold of choice for serial dilutions with a starting concentration of […] or or 100 μM or 50 uM) were then delivered to the reaction wells using acoustic dispenser (Echo, Labcyte) and incubated with the Kras/aGST-Tb antibody for 1-hour at room temperature. […] HTRF based SOS1 mediated exchange of GDP to GTP was measured on a microplate reader […] (BMG Labtech) at an excitation wavelength of 337 nm and emission wavelengths of 665 and 620 nm. No-SOS1 reaction or highest control compound concentration was used as blank and % inhibition was calculated and/or IC50 was determined using Sigmoidal dose response (variable slope) equation.

T1 sequence (P01116 2-169 isoform P01116-2 G12D): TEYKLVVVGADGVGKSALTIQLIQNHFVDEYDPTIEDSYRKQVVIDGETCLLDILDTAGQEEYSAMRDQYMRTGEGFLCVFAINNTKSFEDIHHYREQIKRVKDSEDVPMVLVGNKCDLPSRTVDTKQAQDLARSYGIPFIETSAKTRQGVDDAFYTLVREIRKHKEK

| Compound | inhibition at 3 µM [1] [%] | inhibition at 10 µM [1] [%] | inhibition at 3 µM [2] [%] | inhibition at 10 µM [2] [%] | IC50 [3] [nM] | IC50 [4] [nM] |
| --- | --- | --- | --- | --- | --- | --- |
| N#Cc1c(OCC23CCCN2C[C@H](F)C3)nc(N2CC3CCC(C2)N3)c2c1CN(c1cc(O)cc3ccccc13)CC2 (stereo partly drawn) [Ex 25, 1-(3,8-diazabicyclo[3.2.1]octan-3-yl)-3-(((2R)-2-fluorotetrahydro-1H-pyrrolizin-7a(5H)-yl)methoxy)-6-(3-hydroxynaphthalen-1-yl)-5,6,7,8-tetrahydro-2,6-naphthyridine-4-carbonitrile Hydrochloride] | 25 to 50 | 75 to 100 | 75 to 100 | 75 to 100 | 5000 to 10000 | < 25 |
| N#Cc1c(OCC23CCCN2C[C@H](F)C3)nc(N2CC3CCC(C2)N3)c2c1CN(c1cccc3cccc(Cl)c13)CC2 (stereo partly drawn) [Ex 17, 1-(3,8-diazabicyclo[3.2.1]octan-3-yl)-6-(8-chloronaphthalen-1-yl)-3-(((2R)-2-fluorotetrahydro-1H-pyrrolizin-7a(5H)-yl)methoxy)-5,6,7,8-tetrahydro-2,6-naphthyridine-4-carbonitrile Hydrochloride] | 25 to 50 | 75 to 100 | 25 to 50 | 75 to 100 | 2500 to 5000 | 25 to 50 |
| CN1CCC[C@H]1COc1nc(N2CC3CCC(C2)N3)c2c(c1C#N)CN(c1cccc3cccc(Cl)c13)CC2 [Ex 16, 1-(3,8-diazabicyclo[3.2.1]octan-3-yl)-6-(8-chloronaphthalen-1-yl)-3-(((S)-1-methylpyrrolidin-2-yl)methoxy)-5,6,7,8-tetrahydro-2,6-naphthyridine-4-carbonitrile Hydrochloride] | 50 to 75 | 75 to 100 | 50 to 75 | 50 to 75 | < 2500 | 200 to 1000 |

Source: patent US20250051361A1, “5,6,7,8-TETRAHYDRO-2,6-NAPHTHYRIDINE DERIVATIVES AS CANCER THERAPEUTICS” (VRise Therapeutics, Inc., priority 2021, published 2025)
